Assay results published in ChEMBL document CHEMBL5291721, “A preclinical secondary pharmacology resource illuminates target-adverse drug reaction associations of marketed drugs” (Nat Commun, 2023).

What was measured:
[1] = biological target: Mu-type opioid receptor (Homo sapiens, UniProt P35372)
[2] = biological target: T1, Progesterone receptor (Homo sapiens, UniProt P06401)
T1 sequence (P06401 whole entry): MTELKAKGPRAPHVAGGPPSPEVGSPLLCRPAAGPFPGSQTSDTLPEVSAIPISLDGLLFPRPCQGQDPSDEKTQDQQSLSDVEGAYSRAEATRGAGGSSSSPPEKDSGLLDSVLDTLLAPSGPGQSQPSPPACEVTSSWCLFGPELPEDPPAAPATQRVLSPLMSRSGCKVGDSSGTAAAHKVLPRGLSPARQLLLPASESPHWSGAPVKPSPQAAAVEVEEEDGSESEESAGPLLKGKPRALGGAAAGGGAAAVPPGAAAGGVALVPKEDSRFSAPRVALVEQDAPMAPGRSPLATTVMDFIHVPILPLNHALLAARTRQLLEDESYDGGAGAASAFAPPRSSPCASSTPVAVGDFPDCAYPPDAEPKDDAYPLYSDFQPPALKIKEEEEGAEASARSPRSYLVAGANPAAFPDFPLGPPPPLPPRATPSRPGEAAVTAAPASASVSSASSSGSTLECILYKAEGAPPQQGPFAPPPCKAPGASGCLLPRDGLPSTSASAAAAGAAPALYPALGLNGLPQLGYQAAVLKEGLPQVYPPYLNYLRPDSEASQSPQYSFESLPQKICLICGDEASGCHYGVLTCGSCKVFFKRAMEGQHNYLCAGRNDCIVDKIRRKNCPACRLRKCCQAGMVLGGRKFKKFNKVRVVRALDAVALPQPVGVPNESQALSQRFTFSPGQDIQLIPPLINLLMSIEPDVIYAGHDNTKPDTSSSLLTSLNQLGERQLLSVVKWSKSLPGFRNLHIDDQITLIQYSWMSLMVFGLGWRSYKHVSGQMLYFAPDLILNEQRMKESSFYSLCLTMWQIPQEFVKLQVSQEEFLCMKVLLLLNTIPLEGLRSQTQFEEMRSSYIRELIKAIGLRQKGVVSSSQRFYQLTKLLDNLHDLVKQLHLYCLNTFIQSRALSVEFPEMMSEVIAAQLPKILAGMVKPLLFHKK

[3] = biological target: cGMP-inhibited 3',5'-cyclic phosphodiesterase 3A (Homo sapiens, UniProt Q14432); format: functional
[4] = biological target: T2, Muscarinic acetylcholine receptor M1 (Homo sapiens, UniProt P11229); format: functional, cell-based
T2 sequence (P11229 whole entry): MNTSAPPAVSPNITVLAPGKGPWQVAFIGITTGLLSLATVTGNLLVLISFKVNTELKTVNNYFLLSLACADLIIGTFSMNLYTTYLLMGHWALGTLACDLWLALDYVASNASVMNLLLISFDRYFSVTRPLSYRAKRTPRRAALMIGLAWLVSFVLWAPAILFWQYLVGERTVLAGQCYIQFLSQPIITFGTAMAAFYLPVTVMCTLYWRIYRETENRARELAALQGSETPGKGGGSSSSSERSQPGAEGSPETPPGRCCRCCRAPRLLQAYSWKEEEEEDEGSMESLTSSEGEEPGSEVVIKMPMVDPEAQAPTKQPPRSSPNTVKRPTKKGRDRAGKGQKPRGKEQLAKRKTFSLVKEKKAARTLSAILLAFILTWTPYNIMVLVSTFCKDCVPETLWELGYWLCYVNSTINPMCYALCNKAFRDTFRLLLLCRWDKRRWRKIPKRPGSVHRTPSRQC

[5] = biological target: T2, Muscarinic acetylcholine receptor M1; format: functional
[6] = biological target: T1, Progesterone receptor; format: functional
[7] = biological target: Muscarinic acetylcholine receptor M3 (Homo sapiens, UniProt P20309)
[8] = biological target: T3, Neuropeptide Y receptor type 1 (Homo sapiens, UniProt P25929)
T3 sequence (P25929 whole entry): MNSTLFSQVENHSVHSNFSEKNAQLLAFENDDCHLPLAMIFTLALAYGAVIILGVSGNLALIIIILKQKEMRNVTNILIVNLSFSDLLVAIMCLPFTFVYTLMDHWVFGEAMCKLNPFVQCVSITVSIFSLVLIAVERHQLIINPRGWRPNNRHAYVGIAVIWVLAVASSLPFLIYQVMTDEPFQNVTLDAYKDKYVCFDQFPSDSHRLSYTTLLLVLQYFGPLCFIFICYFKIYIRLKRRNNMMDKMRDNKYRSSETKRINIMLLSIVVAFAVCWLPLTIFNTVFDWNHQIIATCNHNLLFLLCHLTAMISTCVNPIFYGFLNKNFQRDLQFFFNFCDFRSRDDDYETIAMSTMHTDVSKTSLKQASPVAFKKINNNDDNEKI

[9] = biological target: Histamine H2 receptor (Homo sapiens, UniProt P25021); format: functional, cell-based
[10] = biological target: 5-hydroxytryptamine receptor 2A (Homo sapiens, UniProt P28223); format: functional, cell-based
[11] = biological target: T4, Thromboxane A2 receptor (Homo sapiens, UniProt P21731)
T4 sequence (P21731 whole entry): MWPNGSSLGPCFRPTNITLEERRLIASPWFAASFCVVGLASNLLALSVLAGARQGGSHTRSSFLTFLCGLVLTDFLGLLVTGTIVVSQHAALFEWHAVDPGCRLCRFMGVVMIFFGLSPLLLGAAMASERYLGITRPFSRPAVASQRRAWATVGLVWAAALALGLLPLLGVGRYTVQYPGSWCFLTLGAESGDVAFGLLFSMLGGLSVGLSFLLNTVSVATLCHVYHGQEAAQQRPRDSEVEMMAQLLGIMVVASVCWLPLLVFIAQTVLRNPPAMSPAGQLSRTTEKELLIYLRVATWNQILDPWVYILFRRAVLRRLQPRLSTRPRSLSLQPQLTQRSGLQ
Also: assay procedure not described here.

Chain of Muscarinic acetylcholine receptor M3 (P20309 whole entry): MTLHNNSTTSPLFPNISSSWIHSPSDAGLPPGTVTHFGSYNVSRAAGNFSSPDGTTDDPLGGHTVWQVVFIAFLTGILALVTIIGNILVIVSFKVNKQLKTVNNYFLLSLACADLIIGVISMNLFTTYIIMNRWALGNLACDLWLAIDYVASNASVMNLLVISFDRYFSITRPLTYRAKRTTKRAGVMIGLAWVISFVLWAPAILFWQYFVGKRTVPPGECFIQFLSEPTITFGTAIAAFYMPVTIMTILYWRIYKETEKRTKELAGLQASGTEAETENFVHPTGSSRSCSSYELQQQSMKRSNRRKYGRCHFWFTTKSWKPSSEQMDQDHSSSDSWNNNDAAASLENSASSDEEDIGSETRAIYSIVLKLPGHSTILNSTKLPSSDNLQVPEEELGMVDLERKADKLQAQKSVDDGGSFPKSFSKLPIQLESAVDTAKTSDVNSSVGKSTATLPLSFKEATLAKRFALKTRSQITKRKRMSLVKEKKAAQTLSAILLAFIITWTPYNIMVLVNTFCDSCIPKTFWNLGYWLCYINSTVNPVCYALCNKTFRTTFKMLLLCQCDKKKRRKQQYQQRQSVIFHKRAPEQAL
Chain of Histamine H2 receptor (P25021 whole entry): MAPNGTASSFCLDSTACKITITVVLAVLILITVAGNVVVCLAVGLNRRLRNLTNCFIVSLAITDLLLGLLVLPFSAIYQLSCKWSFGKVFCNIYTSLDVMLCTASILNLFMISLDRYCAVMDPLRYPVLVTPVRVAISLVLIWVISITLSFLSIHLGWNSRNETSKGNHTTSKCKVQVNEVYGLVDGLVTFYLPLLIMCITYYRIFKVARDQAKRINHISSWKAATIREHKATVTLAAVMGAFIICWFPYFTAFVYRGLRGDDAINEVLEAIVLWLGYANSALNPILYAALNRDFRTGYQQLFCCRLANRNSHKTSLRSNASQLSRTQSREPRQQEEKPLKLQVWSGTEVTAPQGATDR
Chain of 5-hydroxytryptamine receptor 2A (P28223 whole entry): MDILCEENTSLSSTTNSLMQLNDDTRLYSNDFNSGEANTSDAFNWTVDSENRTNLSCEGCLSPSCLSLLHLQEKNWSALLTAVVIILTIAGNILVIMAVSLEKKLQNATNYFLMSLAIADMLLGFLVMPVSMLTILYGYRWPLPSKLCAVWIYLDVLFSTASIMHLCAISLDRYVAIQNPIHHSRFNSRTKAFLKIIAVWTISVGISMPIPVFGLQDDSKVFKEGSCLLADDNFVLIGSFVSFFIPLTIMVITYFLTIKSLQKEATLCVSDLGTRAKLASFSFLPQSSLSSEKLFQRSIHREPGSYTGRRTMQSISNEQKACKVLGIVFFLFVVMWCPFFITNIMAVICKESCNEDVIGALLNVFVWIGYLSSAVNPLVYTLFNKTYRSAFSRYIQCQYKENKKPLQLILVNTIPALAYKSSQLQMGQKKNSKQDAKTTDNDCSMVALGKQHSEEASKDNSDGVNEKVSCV
Chain of Mu-type opioid receptor (P35372 whole entry): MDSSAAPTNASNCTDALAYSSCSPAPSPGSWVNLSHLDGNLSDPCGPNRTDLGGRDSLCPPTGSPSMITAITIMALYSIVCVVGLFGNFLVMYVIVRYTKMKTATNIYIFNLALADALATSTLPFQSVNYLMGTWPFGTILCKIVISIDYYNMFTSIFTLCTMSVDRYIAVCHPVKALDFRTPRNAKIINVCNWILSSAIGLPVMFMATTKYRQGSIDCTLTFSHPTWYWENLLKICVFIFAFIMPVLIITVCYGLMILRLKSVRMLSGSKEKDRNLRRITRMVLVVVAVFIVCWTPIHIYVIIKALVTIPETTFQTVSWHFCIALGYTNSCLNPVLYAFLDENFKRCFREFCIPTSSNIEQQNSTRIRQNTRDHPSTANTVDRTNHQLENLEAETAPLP
Chain of cGMP-inhibited 3',5'-cyclic phosphodiesterase 3A (Q14432 whole entry): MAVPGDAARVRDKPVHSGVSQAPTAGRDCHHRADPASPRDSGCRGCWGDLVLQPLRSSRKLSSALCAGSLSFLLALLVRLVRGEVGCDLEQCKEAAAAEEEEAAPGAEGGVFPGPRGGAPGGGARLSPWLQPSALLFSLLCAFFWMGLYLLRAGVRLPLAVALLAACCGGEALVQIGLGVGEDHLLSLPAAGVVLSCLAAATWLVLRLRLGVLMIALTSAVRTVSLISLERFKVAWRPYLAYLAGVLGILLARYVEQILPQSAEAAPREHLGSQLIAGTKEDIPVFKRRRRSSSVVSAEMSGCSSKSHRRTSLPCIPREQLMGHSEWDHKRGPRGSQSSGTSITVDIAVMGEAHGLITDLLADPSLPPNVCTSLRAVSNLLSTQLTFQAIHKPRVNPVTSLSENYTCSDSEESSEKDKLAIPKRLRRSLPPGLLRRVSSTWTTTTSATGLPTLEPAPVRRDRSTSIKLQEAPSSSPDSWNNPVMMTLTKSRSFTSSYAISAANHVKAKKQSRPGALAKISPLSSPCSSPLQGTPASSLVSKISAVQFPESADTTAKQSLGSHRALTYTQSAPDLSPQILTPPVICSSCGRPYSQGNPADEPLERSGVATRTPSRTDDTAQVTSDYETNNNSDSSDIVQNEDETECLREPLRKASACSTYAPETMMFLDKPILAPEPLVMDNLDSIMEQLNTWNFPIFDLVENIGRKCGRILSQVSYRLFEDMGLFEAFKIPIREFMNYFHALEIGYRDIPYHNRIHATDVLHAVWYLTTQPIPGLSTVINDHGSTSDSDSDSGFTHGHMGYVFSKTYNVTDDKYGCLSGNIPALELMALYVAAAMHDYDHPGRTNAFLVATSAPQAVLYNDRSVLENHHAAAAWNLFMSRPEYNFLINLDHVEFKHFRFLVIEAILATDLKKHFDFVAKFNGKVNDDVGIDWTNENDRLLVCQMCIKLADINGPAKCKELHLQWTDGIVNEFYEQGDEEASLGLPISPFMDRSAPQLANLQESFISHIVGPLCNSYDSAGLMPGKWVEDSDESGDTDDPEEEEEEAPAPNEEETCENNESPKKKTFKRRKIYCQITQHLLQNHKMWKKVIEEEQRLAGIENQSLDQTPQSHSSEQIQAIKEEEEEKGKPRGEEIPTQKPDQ

Row | Structure (SMILES) | AC50 [1] | AC50 [2] | AC50 [3] | AC50 [4] | AC50 [5] | AC50 [6] | AC50 [7] | AC50 [8] | AC50 [9] | AC50 [10] | AC50 [11]
1 | Cc1cc(C#N)cc(C)c1Oc1nc(Nc2ccc(C#N)cc2)nc(N)c1Br [ETRAVIRINE] | 19.1 µM | 0.08 µM | > 30 µM | 2.71 µM | – | – | – | – | – | – | –
2 | O=C(O)c1cc(O)ccc1O [GENTISIC ACID] | > 30 µM | > 30 µM | > 30 µM | > 30 µM | – | – | – | – | – | – | –
3 | C[C@H]1CNCCc2ccc(Cl)cc21 [LORCASERIN] | – | – | – | – | > 30 µM | > 30 µM | > 30 µM | – | – | – | –
4 | CN1C(C(=O)Nc2ccccn2)=C(O)c2sc(Cl)cc2S1(=O)=O [LORNOXICAM] | – | – | – | – | > 10 µM | – | > 30 µM | > 30 µM | > 10 µM | > 30 µM | > 30 µM
5 | CNC1Cc2ccccc2N(C)c2ccccc21 (configuration not stated) [METAPRAMINE] | – | – | – | – | > 30 µM | > 30 µM | > 30 µM | – | – | > 30 µM | –
6 | Cc1nc([N+](=O)[O-])cn1-c1ccc([N+](=O)[O-])cc1 [NITREFAZOLE] | – | – | – | – | > 30 µM | > 30 µM | > 30 µM | > 30 µM | > 30 µM | > 30 µM | > 30 µM
7 | COc1ccc(CC(C)(C)NC[C@H](O)c2cc(O)cc3c2OCC(=O)N3)cc1 [OLODATEROL] | – | – | – | – | > 30 µM | > 30 µM | > 30 µM | – | – | > 30 µM | –
8 | c1cnc(N2CCN(Cc3ccc4c(c3)OCO4)CC2)nc1 [PIRIBEDIL] | – | – | – | – | > 30 µM | > 30 µM | > 30 µM | – | – | > 30 µM | –
9 | COc1ccccc1OCC(O)CN1CCN(CC(=O)Nc2c(C)cccc2C)CC1 (configuration not stated) [RANOLAZINE] | – | – | – | – | > 30 µM | > 30 µM | > 30 µM | > 30 µM | > 30 µM | > 30 µM | > 30 µM
10 | Cc1c(C(=O)NN2CCCCC2)nn(-c2ccc(Cl)cc2Cl)c1-c1ccc(Cl)cc1 [RIMONABANT] | – | – | – | – | > 30 µM | > 30 µM | > 30 µM | > 30 µM | > 10 µM | > 30 µM | 18.6 µM
11 | Cn1nnc2c(C(N)=O)ncn2c1=O [TEMOZOLOMIDE] | – | – | – | – | > 30 µM | > 30 µM | > 30 µM | > 30 µM | > 10 µM | > 30 µM | > 30 µM
12 | Clc1ccc2nsnc2c1NC1=NCCN1 [TIZANIDINE] | – | – | – | – | > 10 µM | – | > 10 µM | > 30 µM | 0.93 µM | – | > 30 µM
13 | O=C(O[C@H]1C[C@H]2CC[C@@H](C1)[N+]21CCCC1)C(O)(c1ccccc1)c1ccccc1 [TROSPIUM] | – | – | – | – | 0.028 µM | > 30 µM | 0.0089 µM | > 30 µM | > 30 µM | > 30 µM | > 30 µM
14 | Nc1ccn([C@H]2CC[C@@H](CO)O2)c(=O)n1 [ZALCITABINE] | – | – | – | – | > 10 µM | – | > 30 µM | > 10 µM | > 10 µM | > 30 µM | > 10 µM
15 | NS(=O)(=O)Cc1noc2ccccc12 [ZONISAMIDE] | – | – | – | – | > 10 µM | > 10 µM | > 30 µM | > 10 µM | > 10 µM | > 10 µM | > 10 µM
